Data on five compounds can be found in paper PMC11125126, “Synthesis, Characterisation, and In Vitro Evaluation of Biocompatibility, Antibacterial and Antitumor Activity of Imidazolium Ionic Liquids” (Pharmaceutics, 2024).

One test has as its system MCF7 cancer cells. The test can be described thus: Direct cytotoxicity test of IL powders, Alamar blue assay. In kind it is cell-based, human. Particulars: 24 h of incubation. Here is the method: (§1) Cytotoxicity studies on IL powders were carried out using human dermal fibroblast (HDF) cells (Sigma-Aldrich) and a human breast cancer cell line (MCF7). In addition, ILs loaded in PVC polymer substrates were tested for their cytocompatibility and adhesion properties on the HDF. HDF cells were cultured in 75 cm^2 cell culture flask in Dulbecco’s Modified Eagle’s Medium (DMEM) supplemented with 20% Foetal Bovine Serum (FBS), 1% non-essential amino acid (NEAA), antibiotic solution (streptomycin 100 µg/mL and penicillin 100 U/mL, Sigma Aldrich) and 2 mM L-glutamine. MCF7 cells were grown in DMEM with 10% FBS and the same antibiotics as mentioned above. The cells were maintained in a culture at 37 °C, with 5% CO2 and 95% humidity to achieve a confluent layer. Control cells were cultured in a complete medium without any compounds in tissue culture plates. Before biological testing, the samples were sterilised using a UV light for 2 h.
(§2) A direct cytotoxicity test was used to assess the in vitro cytotoxicity of IL powders. IL powders with different alkyl chains were dissolved in DMEM media to obtain solutions at various concentrations (0.5–1–5 and 10 µg/mL) to determine the best formulation.
(§3) After 24 h of incubation of IL solutions (200 µL) with seeded cells under specific environmental conditions (T = 37 °C, HR = 95%, CO2 = 5%), cell viability was tested using the Alamar blue assay (AbD Serotec, Milan, Italy) following the manufacturer’s instructions.
(§4) In summary, each well received a 200 µL aliquot of Alamar Blue^TM diluted 1:10 in phenol red-free medium and was incubated for 4 h at 37 °C, 5% CO2. Following this, 100 µL of the solution was transferred to a 96-well plate for colorimetric analysis. Wells with no cells were included to account for any background interference from the redox indicator. Optical density was immediately measured using a spectrophotometer (Victor X3, Perkin Elmer, Waltham, MA, USA) at 560 and 595 nm wavelengths. The results were presented as a percentage of cell viability compared to that of the control (cells grown on tissue culture plates).
(§5) Here, the antitumor activity and cytotoxicity of the synthetised imidazolium-based ionic liquids have been determined for breast cancer cells (MCF-7) and healthy human fibroblast (HDF) cells. […] Table 5 reports the IC50 values in µg/mL and µM to make their comparison with the literature data easy.
For orientation: Resazurin is reduced to fluorescent resorufin, in cell work by metabolically active cells.

A further test concerns HDF cells. The description is as above. In kind it is cell-based, human. Conditions: 24 h of incubation. As to the method:
as §1, §2, §3, §4, §5

The subject of another test is Pseudomonas fluorescens. The test can be described thus: MIC/MBC by broth dilution, pure ILs. It counts as cell-based. Particulars: 24 h. An excerpt: (§6) Within the Di3A (Dipartimento di Agricoltura, Alimentazione e Ambiente, University of Catania, Italy) microbial collection, two Gram-negative strains (Escherichia coli and Pseudomonas fluorescens) and one Gram-positive strain (Listeria monocytogenes) were studied in order to define the potential efficacy of ionic liquids in relation to the different structure of the bacterial cell wall.
(§7) For the pure ILs, the minimal inhibitory concentration (MIC) and minimal bactericidal concentration (MBC) were determined in Nutrient Broth (NB, Oxoid, Basingstoke, UK) medium by broth dilution method, according to the Clinical and Laboratory Standards Institute (CLSI).
All the bacterial strains were individually grown for 24 h at 35 or 27 °C for P. fluorescens, with shaking. After the incubation period, the cells were collected by centrifugation and re-suspended in sterile NB to obtain a stock culture of 10^9 CFU/mL. […]
(§8) Tubes were incubated at 35 or 27 °C in an orbital shaker and evaluated for the viable count of E. coli, P. fluorescens, and L. monocytogenes after 24 h by spread-plating 100 µL of each suspension on Nutrient Agar (NA, Oxoid, Basingstoke, UK) incubated for 24–48 h at 35 or 27 °C.
(§9) In this study, MIC and MBC are expressed in both µg/mL and µM to make the comparison with the literature data easy. Each experiment was performed in triplicate.

The test system of a further test is Listeria monocytogenes. The test can be described thus: MIC/MBC by broth dilution, pure ILs. It counts as cell-based. Conditions: 24 h.
From the text: as §6, §7
(§10) All the bacterial strains were individually grown for 24 h at 35 or 27 °C for P. fluorescens, with shaking. After the incubation period, the cells were collected by centrifugation and re-suspended in sterile NB to obtain a stock culture of 10^9 CFU/mL.
(§11) Tubes containing 5 mL of NB with decreasing concentrations of ILs (1000, 500, 250, 125, 50, 25, 12.5, 5 and 0 µg/mL) were inoculated with each bacterial stock culture at a final concentration of 10^6 CFU/mL.
as §8, §9
Background: In broth dilution the organism is exposed to a series of concentrations in liquid medium.

The next test relates to Escherichia coli. The test can be described thus: MIC/MBC by broth dilution, pure ILs. In kind it is cell-based. Conditions: 24 h.
From the text: as §6, §7, §10, §11, §8, §9

Setting [1] is: NI = no inhibition at IL maximum concentration used (1000 µM), read-out: MBC.
The mark [2] stands for this setting: NI = no inhibition at IL maximum concentration used (1000 µM), read-out: MIC.

Read-outs that look alike come from different tables or passages of the source.

As usually defined, the IC50 is the midpoint of a concentration-inhibition curve. Read a low IC50 as greater potency. Usually MBC stands for the smallest concentration meeting the test's criterion for killing. For orientation: MIC means the least concentration at which growth counts as inhibited. For `CCCCCCCCCCCCCC[n+]1ccn(C)c1.F[B-](F)(F)F` [C14mimBF4], the IC50 was 4.41 µg/mL in the test with MCF7 cancer cells (Homo sapiens, n = 3); 12.1 µM with MCF7 cancer cells (Homo sapiens, n = 3, mean ± SD); 10.3 µM in the test on HDF cells (Homo sapiens, n = 3); 3.78 ± 0.17 µg/mL with HDF cells (Homo sapiens, n = 3, mean ± SD). In addition, the MBC was 45.8 µg/mL with Pseudomonas fluorescens (10^6 CFU/mL, read-out: MBC); 125 µM in the test on Pseudomonas fluorescens (setting [1]); 4.58 µg/mL in the test on Listeria monocytogenes (10^6 CFU/mL, read-out: MBC); 12.5 µM with Listeria monocytogenes (setting [1]); 9.16 µg/mL with Escherichia coli (10^6 CFU/mL, read-out: MBC); 25 µM with Escherichia coli (setting [1]). The MIC with Pseudomonas fluorescens (10^6 CFU/mL, read-out: MIC) turned out to be 9.16 µg/mL; with Pseudomonas fluorescens (setting [2]), 25 µM; in the test on Listeria monocytogenes (10^6 CFU/mL, read-out: MIC) it was 4.58 µg/mL; in the test with Listeria monocytogenes (setting [2]), 12.5 µM; with Escherichia coli (10^6 CFU/mL, read-out: MIC) it was 4.58 µg/mL; in the test on Escherichia coli (setting [2]), 12.5 µM.
On to `CCCCCCCCCCCCCC[n+]1ccn(C)c1.COC(=O)c1cc(C(=O)OC)cc(S(=O)(=O)[O-])c1` [C14mimDMSIP], for which the “IC50 MCF7” value with MCF7 cancer cells (n = 3) was 2.91 µg/mL. Besides, the IC50 in the test on MCF7 cancer cells (n = 3, mean ± SD) is 5.22 µM; in the test on HDF cells (n = 3) it was 10.1 µM. Also, the “IC50 HDF” value with HDF cells (n = 3, mean ± SD) was 5.56 ± 0.04 µg/mL. Also, the minimal bactericidal concentration (MBC) against Pseudomonas fluorescens (10^6 CFU/mL) was determined as 69.09 µg/mL; with Pseudomonas fluorescens (setting [1]) it was 125 µM; against Listeria monocytogenes (10^6 CFU/mL), 69.09 µg/mL; with Listeria monocytogenes (setting [1]), 125 µM; in the test on Escherichia coli (10^6 CFU/mL), 27.64 µg/mL; with Escherichia coli (setting [1]) it was 50 µM. Moreover, the MIC is given as 27.64 µg/mL against Pseudomonas fluorescens (10^6 CFU/mL); 50 µM with Pseudomonas fluorescens (setting [2]); 27.64 µg/mL in the test on Listeria monocytogenes (10^6 CFU/mL); 50 µM with Listeria monocytogenes (setting [2]); 13.82 µg/mL in the test on Escherichia coli (10^6 CFU/mL); 25 µM in the test with Escherichia coli (setting [2]).
Take `CCCCCCCCCCCCCCCC[n+]1ccn(C)c1.F[B-](F)(F)F` [C16mimBF4]: the IC50 in the test on MCF7 cancer cells (Homo sapiens, n = 3) is 1.64 µg/mL; in the test with MCF7 cancer cells (Homo sapiens, n = 3, mean ± SD), 4.16 µM; in the test with HDF cells (Homo sapiens, n = 3), 20.9 µM; in the test on HDF cells (Homo sapiens, n = 3, mean ± SD), 8.26 ± 0.03 µg/mL. Besides, the MBC in the test with Pseudomonas fluorescens (10^6 CFU/mL, read-out: MBC) came to 98.6 µg/mL; in the test on Pseudomonas fluorescens (setting [1]) it was 250 µM; with Listeria monocytogenes (10^6 CFU/mL, read-out: MBC), 98.6 µg/mL; in the test with Listeria monocytogenes (setting [1]) it was 250 µM; with Escherichia coli (10^6 CFU/mL, read-out: MBC), 49.3 µg/mL; with Escherichia coli (setting [1]), 125 µM. The MIC amounted to 49.3 µg/mL in the test on Pseudomonas fluorescens (10^6 CFU/mL, read-out: MIC); 125 µM in the test on Pseudomonas fluorescens (setting [2]); 19.7 µg/mL in the test with Listeria monocytogenes (10^6 CFU/mL, read-out: MIC); 50 µM in the test on Listeria monocytogenes (setting [2]); 9.86 µg/mL in the test on Escherichia coli (10^6 CFU/mL, read-out: MIC); 25 µM in the test with Escherichia coli (setting [2]).
Take `CCCCCCCCCCCCCCCCCC[n+]1ccn(C)c1.COC(=O)c1cc(C(=O)OC)cc(S(=O)(=O)[O-])c1` [C18mimDMSIP]: the “IC50 MCF7” value in the test on MCF7 cancer cells (n = 3) came out at 1.96 µg/mL. In addition, the IC50 was 3.22 µM with MCF7 cancer cells (n = 3, mean ± SD) and 6.59 µM with HDF cells (n = 3). In addition, in the test on HDF cells (n = 3, mean ± SD), the “IC50 HDF” value is listed as 4.01 ± 0.14 µg/mL. For the same compound, the MBC against Listeria monocytogenes (10^6 CFU/mL) was 304.4 µg/mL; in the test with Listeria monocytogenes (setting [1]) it was 500 µM; in the test with Escherichia coli (10^6 CFU/mL), 608.83 µg/mL; in the test on Escherichia coli (setting [1]), 1000 µM. Besides, the MIC is on record as 304.4 µg/mL against Listeria monocytogenes (10^6 CFU/mL), 500 µM with Listeria monocytogenes (setting [2]), 608.83 µg/mL against Escherichia coli (10^6 CFU/mL) and 1000 µM in the test with Escherichia coli (setting [2]).
For the compound `COc1cccc2c1C(=O)c1c(O)c3c(c(O)c1C2=O)C[C@@](O)(C(=O)CO)C[C@@H]3O[C@H]1C[C@H](N)[C@H](O)[C@H](C)O1` [Doxorubicin, reference compound], the IC50 in the test with MCF7 cancer cells (Homo sapiens, n = 3) amounted to 7.2 µg/mL; in the test on MCF7 cancer cells (Homo sapiens, n = 3, mean ± SD), 13.2 µM.
